Our source for the EC90 and CC90 values is patent publication US20120202794A1 (priority 2011, published 2012).

For one series, the system named is HCV Replicon 1b. Briefly: HCV inhibition assay, HCV replicon 1b (Clone A or ET-lunet cells; RT-PCR or luciferase reporter). Format: cell-based. The conditions noted are these: Hepatitis C virus, 96 h, HCV replicon 1b; 4 days incubation; read-out: Replicon 1b potency EC90. In a few lines:
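Clone A (1500/well) or ET-lunet (3000/well) replicon cells treated with serially diluted compounds (0.5% DMSO, no G418) for 4 days at 37 °C. HCV RNA measured by one-step RT-PCR normalized to rRNA (ΔΔCt) or by luciferase luminescence versus DMSO controls; EC50/EC90 by curve fitting.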
(In antiviral work, replicon cells carry a viral genome segment that copies itself.)

Series [1] is described as follows: Cell cytotoxicity assay (MTS), CC90 as reported in Table 1, cell line not stated. The conditions noted are these: human; MTS assay; 8 days incubation; cell line not given. Format: cell-based. Summed up:
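Compounds, serially diluted from 100 μM, were incubated 8 days at 37° C with Huh7, HepG2 or BxPC3 (2×10^3 cells/well) or CEM (5×10^3 cells/well). Viability was read by MTS, 2 h, absorbance 490 nm. CC90 (90% inhibition) was taken against untreated cells.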

By EC90 is commonly meant the concentration at which the effect reaches the 90% level.

With `CC(C)C[C@H]1C(=O)N[C@@H](c2ccccc2)CN1C(=O)c1noc(-c2ccc(F)cc2F)c1F` [Compound 385, (3S,6S)-4-(5-(2,4-difluorophenyl)-4-fluoroisoxazole-3-carbonyl)-3-isobutyl-6-phenylpiperazin-2-one], the EC90 in the series with HCV Replicon 1b was found to be 0.5 µM. The CC90 at 8 days in series [1] was > 10 µM.

As for `CC(C)C[C@H]1C(=O)N[C@@H](c2ccccc2F)CN1C(=O)c1noc(-c2ccc(F)cc2F)c1F` [Compound 386, (3S,6S)-4-(5-(2,4-difluorophenyl)-4-fluoroisoxazole-3-carbonyl)-6-(2-fluorophenyl)-3-isobutylpiperazin-2-one], the EC90 in the series on HCV Replicon 1b came to 0.57 µM. Besides, in series [1], the CC90 at 8 days is > 10 µM.

Take `CCC[C@H]1CN(C(=O)c2noc(-c3ccc(F)cc3F)c2F)[C@@H](CC(C)C)C(=O)N1` [Compound 387, (3S,6S)-4-(5-(2,4-difluorophenyl)-4-fluoroisoxazole-3-carbonyl)-3-isobutyl-6-propylpiperazin-2-one]: in the series on HCV Replicon 1b, the EC90 was found to be 0.26 µM. Also, the CC90 at 8 days in series [1] is > 10 µM.

As to `CC(C)C[C@H]1C(=O)N[C@@H](C2CCCC2)CN1C(=O)c1noc(-c2ccc(F)cc2F)c1F` [Compound 388, (3S,6S)-6-cyclopentyl-4-(5-(2,4-difluorophenyl)-4-fluoroisoxazole-3-carbonyl)-3-isobutylpiperazin-2-ono], the EC90 in the series on HCV Replicon 1b was determined as 0.67 µM. In series [1], the CC90 at 8 days is > 10 µM.

With `CC(C)C[C@H]1C(=O)N[C@@H](C2CCCCC2)CN1C(=O)c1noc(-c2ccc(F)cc2F)c1F` [Compound 389, (3S,6S)-6-cyclohexyl-4-(5-(2,4-difluorophenyl)-4-fluoroisoxazole-3-carbonyl)-3-isobutylpiperazin-2-one], in the series on HCV Replicon 1b, the EC90 was 1.45 µM. Besides, the CC90 at 8 days in series [1] is > 10 µM.

As for `CC(C)C[C@H]1C(=O)N[C@@H](c2ccccc2)CN1C(=O)c1noc(-c2ccc(F)c(F)c2)c1F` [Compound 390, (3S,6S)-4-(5-(3,4-difluorophenyl)-4-fluoroisoxazole-3-carbonyl)-3-isobutyl-6-phenylpiperazin-2-one], in the series on HCV Replicon 1b, the EC90 stood at 2.05 µM. In addition, in series [1], the CC90 at 8 days is > 10 µM.

For the compound `CC(C)C[C@H]1C(=O)N[C@@H](c2ccccc2F)CN1C(=O)c1noc(-c2ccc(F)c(F)c2)c1F` [Compound 392, (3S,6S)-4-(5-(3,4-difluorophenyl)-4-fluoroisoxazole-3-carbonyl)-6-(2-fluorophenyl)-3-isobutylpiperazin-2-one], in the series on HCV Replicon 1b, the EC90 turned out to be 1.91 µM. In series [1], the CC90 at 8 days was > 10 µM.

In the case of `CCC[C@H]1CN(C(=O)c2noc(-c3ccc(F)c(F)c3)c2F)[C@@H](CC(C)C)C(=O)N1` [Compound 393, (3S,6S)-4-(5-(3,4-difluorophenyl)-4-fluoroisoxazole-3-carbonyl)-3-isobutyl-6-propylpiperazin-2-one], the EC90 in the series on HCV Replicon 1b stood at 0.26 µM. Also, in series [1], the CC90 at 8 days was > 10 µM.

In the case of `CC(C)C[C@H]1CN(C(=O)c2noc(-c3ccc(F)c(F)c3)c2F)[C@@H](CC(C)C)C(=O)N1` [Compound 394, (3S,6S)-4-(5-(3,4-difluorophenyl)-4-fluoroisoxazole-3-carbonyl)-3,6-diisobutyl-piperazin-2-one], in the series on HCV Replicon 1b, the EC90 is 0.66 µM. Moreover, the CC90 at 8 days in series [1] is > 10 µM.

In the case of `CC(C)C[C@H]1C(=O)N[C@@H](C2CCCC2)CN1C(=O)c1noc(-c2ccc(F)c(F)c2)c1F` [Compound 395, (3S,6S)-6-cyclopentyl-4-(5-(3,4-difluorophenyl)-4-fluoroisoxazole-3-carbonyl)-3-isobutylpiperazin-2-one], the EC90 with HCV Replicon 1b turned out to be 1.02 µM. In series [1], the CC90 at 8 days was > 10 µM.

Turning to `CC(C)C[C@H]1C(=O)N[C@@H](C2CCCCC2)CN1C(=O)c1noc(-c2ccc(F)c(F)c2)c1F` [Compound 396, (3S,6S)-6-cyclohexyl-4-(5-(3,4-difluorophenyl)-4-fluoroisoxazole-3-carbonyl)-3-isobutylpiperazin-2-one], the EC90 in the series on HCV Replicon 1b was found to be 1.82 µM. Besides, in series [1], the CC90 at 8 days is > 10 µM.

Regarding `CCC[C@H]1C(=O)N[C@@H](c2ccccc2)CN1C(=O)c1cc(-c2ccc(F)cc2)on1` [Compound 397, (3S,6S)-4-(5-(4-fluorophenyl)isoxazole-3-carbonyl)-6-phenyl-3-propylpiperazin-2-one], the EC90 with HCV Replicon 1b was 0.89 µM. Besides, the CC90 at 8 days in series [1] was > 10 µM.

With `CCC[C@H]1C(=O)N[C@@H](c2ccccc2)CN1C(=O)[C@@H]1C[C@H]1c1ccccc1` [Compound 399, (3S,6S)-6-phenyl-4-((1R,2R)-2-phenylcyclopropanecarbonyl)-3-propylpiperazin-2-one], the EC90 in the series with HCV Replicon 1b worked out at 2.07 µM. In addition, the CC90 at 8 days in series [1] was > 10 µM.

For the compound `CC(C)[C@H]1C(=O)N[C@@H](c2ccccc2)CN1C(=O)c1cc(-c2ccc(F)cc2)on1` [Compound 400, (3S,6S)-4-(5-(4-fluorophenyl)isoxazole-3-carbonyl)-3-isopropyl-6-phenylpiperazin-2-one], the EC90 in the series on HCV Replicon 1b was 0.97 µM. In series [1], the CC90 at 8 days was > 10 µM.

Turning to `CC(C)[C@H]1C(=O)N[C@@H](c2ccccc2)CN1C(=O)[C@@H]1C[C@H]1c1ccccc1` [Compound 402, (3S,6S)-3-isopropyl-6-phenyl-4-((1R,2R)-2-phenylcyclopropanecarbonyl)piperazin-2-one], the EC90 in the series on HCV Replicon 1b is 6.63 µM. Further, the CC90 at 8 days in series [1] was > 10 µM.

With `CC(C)[C@H]1C(=O)N[C@@H](c2ccccc2)CN1C(=O)c1noc(-c2ccc(F)cc2)n1` [Compound 403, (3S,6S)-4-(5-(4-fluorophenyl)-1,2,4-oxadiazole-3-carbonyl)-3-isopropyl-6-phenyl-piperazin-2-ono], the EC90 in the series with HCV Replicon 1b amounted to 0.27 µM. The CC90 at 8 days in series [1] was > 10 µM.

Consider `CC(C)[C@H]1C(=O)N[C@@H](c2ccccc2)CN1C(=O)c1nc(-c2ccc(F)cc2)no1` [Compound 404, (3S,6S)-4-(3-(4-fluorophenyl)-1,2,4-oxadiazole-5-carbonyl)-3-isopropyl-6-phenyl-piperazin-2-one], for which the EC90 with HCV Replicon 1b came out at 1.58 µM. Besides, in series [1], the CC90 at 8 days is > 10 µM.

Consider `CC(C)C[C@H]1CN(C(=O)c2noc(-c3ccc(Cl)cc3)n2)[C@@H](CC(C)C)C(=O)N1` [Compound 405, (3S,6S)-4-(5-(4-chlorophenyl)-1,2,4-oxadiazole-3-carbonyl)-3,6-diisobutylpiperazin-2-one], for which, in the series on HCV Replicon 1b, the EC90 is 0.32 µM. Further, in series [1], the CC90 at 8 days was > 10 µM.

For `CC(C)C[C@H]1C(=O)N[C@@H](c2ccccc2)CN1C(=O)c1noc(-c2ccc(Cl)cc2)n1` [Compound 406, (3S,6S)-4-(5-(4-chlorophenyl)-1,2,4-oxadiazole-3-carbonyl)-3-isobutyl-6-phenyl-piperazin-2-one], the EC90 in the series on HCV Replicon 1b turned out to be 0.23 µM. The CC90 at 8 days in series [1] was > 10 µM.

Take `C=CC[C@H]1C(=O)N[C@@H](c2ccccc2)CN1C(=O)c1cc(-c2ccc(F)cc2)on1` [Compound 407, (3S,6S)-3-allyl-4-(5-(4-fluorophenyl)isoxazole-3-carbonyl)-6-phenylpiperazin-2-one]: in the series with HCV Replicon 1b, the EC90 turned out to be 0.74 µM. Besides, in series [1], the CC90 at 8 days is > 10 µM.

In the case of `C=CC[C@H]1C(=O)N[C@@H](CCC)CN1C(=O)c1cc(-c2ccc(F)cc2)on1` [Compound 409, (3S,6S)-3-allyl-4-(5-(4-fluorophenyl)isoxazole-3-carbonyl)-6-propylpiperazin-2-one], the EC90 in the series with HCV Replicon 1b is 1.88 µM. The CC90 at 8 days in series [1] was > 10 µM.
